Data on seven compounds can be found in PMC9605374 (Marine Drugs, 2022).

Series [1] relates to 22Rv1 cells. The series is described as follows: Annexin-V-FITC/PI double staining, flow cytometry. The format is cell-based, human. The conditions noted are these: 22Rv1, zVAD 100 µM 1 h pretreatment, 48 h. The procedure:
Figure 4 Investigation of the proapoptotic activity of NB. Flow cytometry analysis of 22Rv1 cells after 48 h of treatment. (A) Cell cycle and DNA fragmentation analysis. Treated cells were stained with PI and analyzed using a flow cytometry technique. Sub-G1 population was assumed to be apoptotic cells containing fragmentated DNA. (B) Analysis of phosphatidylserine externalization. Treated cells were double-stained with annexin-V-FITC and PI and analyzed using the flow cytometry technique. Cells of the low left quadrant (annexin-V-FITC^−/PI^−) were considered as alive cells. The Cell Quest Pro v.5.2.1 software (BD Bioscience, San Jose, CA, USA) was used to analyze and quantify the FACS data. Cells treated for 48 h with 10 µM of anisomycin were used as a positive control. Number of replicates n = 3. Statistical significance: * p < 0.05 (ANOVA). […]
Externalization of phosphatidylserine is a distinct marker of apoptotic cell death that can be detected by flow cytometry using annexin-V-FITC and propidium iodide (PI) double staining. […] Cells were harvested utilizing trypsin, stained with annexin-V-FITC and propidium iodide, and analyzed using FACS Calibur (BD Bioscience, San Jose, CA, USA).

The next series has as its system VCaP. The series is described as follows: MTT assay, cell viability. The conditions noted are these: Homo sapiens, 48 h of treatment, mean ± SD. The format is cell-based. The source says:
(§1) To examine the anticancer potential and selectivity of NB, we used a panel of six human prostate cancer cell lines, harboring different levels of treatment resistance to representatively reflect the heterogeneity of the disease. […] Additionally, four human noncancer cells lines were utilized in order to determine the selectivity of NB towards prostate cancer cells, i.e., prostate noncancer PNT2 and RWPE-1 cells, human embryonic kidney HEK 293T cells, and human fibroblasts MRC-9. The different cell lines were treated with NB and the cell viability was examined using MTT assay (Figure 1). The mean IC50 of NB and docetaxel (used as a reference substance) in noncancerous cell lines was divided by the mean IC50 in the prostate cancer cell lines to determine the selectivity index (SI).
(§2) The MTT assay was used to monitor the effect of the drugs on cell viability in terms of metabolic activity, as previously reported. First, preincubation of the cells in 96-well plates (6 × 10^3 cells/well in 100 μL/well) was performed overnight in the correspondent culture medium. Next, the medium was exchanged for fresh medium containing the investigated compounds or a vehicle (100 μL/well). Cells were then incubated for 48 h, unless otherwise stated. Then, 10 μL/well of 3-(4,5-dimethylthiazol-2-yl)-2,5-diphenyltetrazolium bromide reagent (MTT, 5 mg/mL) were added. After 2–4 h of additional incubation the media was removed, and the plates were dried. Finally, 50 μL/well of DMSO were added to solve the formed formazan crystals produced by the metabolic active cells and Infinite F200PRO reader (TECAN, Männedorf, Switzerland) was used to measure the cell viability. The results were proceeded with a GraphPad Prism software v.9.1.1 (GraphPad Software, San Diego, CA, USA). Cells treated with the solvent of the drugs alone were used as a control (100% alive cells). The effect of the drugs on cell viability is represented as IC50.
A general note: Formazan colour is commonly taken as a measure of viable cells.

For the next series, the system named is DU145. The series is described as follows: MTT assay, cell viability. In kind it is cell-based. The conditions noted are these: Homo sapiens, DU-145, DU145, 48 h of treatment, mean ± SD.
From the text: as §1, §2

The next series deals with PC3. The series is described as follows: MTT assay, cell viability. In kind it is cell-based. Particulars: Homo sapiens, PC-3, PC3, 48 h of treatment, mean ± SD.
From the text: as §1, §2

Another series deals with HEK293. The series is described as follows: MTT assay, cell viability. The format is cell-based. The conditions noted are these: Homo sapiens, HEK293, 48 h of treatment, mean ± SD.
From the text: as §1, §2

A further series has as its system MRC-9. The series is described as follows: MTT assay, cell viability. The format is cell-based. Particulars: Homo sapiens, MRC9, MRC-9, 48 h of treatment, mean ± SD.
From the text: as §1, §2

For the next series, the system named is RWPE-1. The series is described as follows: MTT assay, cell viability. The format is cell-based. Particulars: Homo sapiens, RWPE-1, 48 h of treatment, mean ± SD.
From the text: as §1, §2

The subject of another series is PNT2. The series is described as follows: MTT assay, cell viability. The format is cell-based. Particulars: Homo sapiens, PNT2, 48 h of treatment, mean ± SD.
From the text: as §1, §2

For the next series, the system named is 22Rv1. The series is described as follows: MTT assay, cell viability. The conditions noted are these: Homo sapiens, 22Rv1, 48 h of treatment, mean ± SD. The format is cell-based.
From the text: as §1, §2

Another series relates to noncancer cells. The series is described as follows: MTT assay, mean IC50 in noncancer cell panel. The format is cell-based. The conditions noted are these: Homo sapiens, mean over PNT2, RWPE-1, HEK293, MRC-9, 48 h.
From the text: as §1
The MTT assay was used to monitor the effect of the drugs on cell viability in terms of metabolic activity, as previously reported. First, preincubation of the cells in 96-well plates (6 × 10^3 cells/well in 100 μL/well) was performed overnight in the correspondent culture medium. Next, the medium was exchanged for fresh medium containing the investigated compounds or a vehicle (100 μL/well). […] Finally, 50 μL/well of DMSO were added to solve the formed formazan crystals produced by the metabolic active cells and Infinite F200PRO reader (TECAN, Männedorf, Switzerland) was used to measure the cell viability. […]

In series [2] the test system is PC3-DR cells. The series is described as follows: Drug combination study NB with docetaxel, MTT assay, SynergyFinder 2.0. In kind it is cell-based. Particulars: Homo sapiens, PC3-DR, NB 0, 24 h, MTT. How it is done: Thus, drug-resistant PC3-DR cells were treated with docetaxel in combination with NB (Figure 9). Potential synergism between NB and docetaxel was measured by the Chou–Talalay method as described before.
Figure 9 Combinational treatment on PC3-DR cells with NB and docetaxel. […] MTT assay was used to examine cellular viability. Number of replicates n = 3. (A) The heatmap represents cytotoxicity (viability inhibition) of the individual drugs or their combinations. (B,C) To calculate and visualize in 2D (B) or 3D (C) the effect of the drug combination (synergism/additive effect/antagonism), the SynergyFinder v. 2.0 software (Network Pharmacology for Precision Medicine in the Research Program of System Oncology, Faculty of Medicine at University of Helsinki, Helsinki, Finland) and a ZIP reference model were used. Green regions indicate antagonism, white regions refer to additive effect, and red regions indicate synergism.
(§3) The experiments were carried out as previously reported. […] 22Rv1 cells (6 × 10^3 cells/well in 96-well plates) were simultaneously treated with NB and docetaxel; or pretreated with MAPK inhibitors for 1 h following treatment with NB in the total media volume of 100 µL/well. Following 24 h of incubation, the viability of the cells treated with individual drugs as well as their combinations was determined using MTT assay. […] Red areas (positive δ-values) and green areas (negative δ-values) indicate synergism and antagonism, respectively.

Series [3] deals with PC3-DR cells. Particulars: PC3-DR vs PC3; cited from earlier work.
A further series deals with prostate cancer cells. The series is described as follows: MTT assay, mean IC50 in cancer cell panel and selectivity index. In kind it is cell-based, human.
From the text: as §1, §2

A further series relates to PC3-DR. The series is described as follows: MTT assay, cell viability. The format is cell-based, human. The conditions noted are these: Homo sapiens, PC3-DR, 48 h of treatment, mean ± SD.
From the text: as §1, §2

For series [4], the system named is 22Rv1 cells. The series is described as follows: Drug combination study NB with MAPK inhibitors, MTT assay, SynergyFinder 2.0. In kind it is cell-based. The conditions noted are these: Homo sapiens, MTT.
From the text: Whether activation of MAPKs contribute to cell death or survival depends not only on the cellular context, but also on the nature of the activating stimuli. Thus, to reveal the function of JNK1/2 and p38 in the anticancer effect of NB, we co-treated 22Rv1 cells with NB and specific inhibitors of the above-mentioned MAPKs. […] As MEK1/2 kinase directly and exclusively activates ERK1/2, PD98039 inhibitor is often used as an ERK1/2 inhibitor [38]. Thus, an inactivation of MEK1/2 leads solely to an inhibition of ERK1/2 [38]. Since the inhibitors themselves exert cytotoxic effects in cancer cells, we used a Chou–Talalay method to distinguish between synergism, additive effects, or antagonistic effects of the particular MAPK inhibitor on the compound bioactivity. For this, using an MTT assay, we determined a cytotoxic effect on various concentrations of NB, MAPK inhibitors, and their combinations in 22Rv1 cells. The viability data were further analyzed using the SynergyFinder v. 2.0 software (Network Pharmacology for Precision Medicine in the Research Program of System Oncology, Faculty of Medicine at University of Helsinki, Helsinki, Finland) and a Zero interaction potency (ZIP) reference model (Figure 7).
as §3

A further series concerns HeLa cells. On the set-up: method as in PMID 28051860. The conditions noted are these: cited from earlier work.

Read-outs that look alike come from different tables or passages of the source.

One may read the IC50 as the concentration at which inhibition is half-maximal. A lower IC50 goes with inhibition by little substance. Usually inhibition stands for the change of the read-out against control, counted positive when it falls.

As for `COc1ccc(C[C@H]2NC[C@H](O)[C@H]2OC(C)=O)cc1` [Anisomycin, anisomycin, reference compound], the “effect of pretreatment with pan-caspase inhibitor zVAD on drug-induced cell death” value with 22Rv1 cells [1] is listed as “strongly inhibited”.
In the case of `CC(=O)O[C@@]12CO[C@@H]1C[C@H](O)[C@@]1(C)C(=O)[C@H](O)C3=C(C)[C@@H](OC(=O)[C@H](O)[C@@H](NC(=O)OC(C)(C)C)c4ccccc4)C[C@@](O)([C@@H](OC(=O)c4ccccc4)[C@H]21)C3(C)C` [Docetaxel, docetaxel, reference compound], the half-maximal inhibitory concentration (IC50) is 0.23 ± 0.22 nM in the series on VCaP; 2.2 ± 0.6 nM with DU145; 7.49 ± 7.09 nM with PC3; 11.5 ± 3.22 nM in the series on HEK293; above 500 nM in the series on MRC-9; 0.42 ± 0.23 nM in the series on RWPE-1. The half-inhibitory concentration (IC50) is above 500 nM with PNT2; 0.6 ± 0.12 nM with 22Rv1; 253 nM in the series with noncancer cells; 56.8 nM with prostate cancer cells (Homo sapiens, mean over PC3, PC3-DR, DU145, 22Rv1, VCaP, LNCaP, 48 h, MTT); 325 ± 21.7 nM in the series with PC3-DR. In addition, the inhibition at 0.00625 µM in the series with PC3-DR cells [2] (docetaxel 6.25 nM) stood at 8.64%. The inhibition at 0.025 µM in the series on PC3-DR cells [2] (docetaxel 25 nM) was determined as 18.7%. Further, in the series with PC3-DR cells [2] (docetaxel 100 nM), the inhibition at 0.1 µM was determined as 31%. The inhibition at 0.4 µM in the series with PC3-DR cells [2] (docetaxel 400 nM) was 58.8%. The “fold less sensitivity of PC3-DR compared to parental cell line” value in the series on PC3-DR cells [3] is listed as ~ 50 fold. The “fold more resistant compared to the parental cell line PC3” value with PC3-DR cells [3] is on record as ~ 50 fold. Moreover, the “Selectivity Index (SI)” value in the series with prostate cancer cells ([mean IC50 in noncancer cells]/[mean IC50 in cancer cells]) is recorded as 4.5.
Regarding `C[S+]([O-])c1ccc(-c2nc(-c3ccncc3)c(-c3ccc(F)cc3)[nH]2)cc1` (stereo not drawn) [SB203580, reference compound], the inhibition at 12.5 µM in the series on 22Rv1 cells [4] (22Rv1, 22Rv1, inhibitor alone 12.5 μM (NB 0)) is 27.6%. For the same compound, the inhibition at 25 µM in the series on 22Rv1 cells [4] (22Rv1, 22Rv1, inhibitor alone 25 μM (NB 0)) is 39.7%. In the series with 22Rv1 cells [4] (22Rv1, 22Rv1, inhibitor alone 50 μM (NB 0)), the inhibition at 50 µM came to 53.3%. Also, the inhibition at 100 µM in the series with 22Rv1 cells [4] (22Rv1, 22Rv1, inhibitor alone 100 μM (NB 0)) turned out to be 63.9%.
`Oc1c2ccccc2c2c3c(cccc13)N=N2` [SP600125, reference compound]: the inhibition at 12.5 µM in the series on 22Rv1 cells [4] (22Rv1, inhibitor alone 12.5 μM (NB 0), read-out: Inhibition (%)) was -5.92%. Also, in the series on 22Rv1 cells [4] (22Rv1, inhibitor alone 25 μM (NB 0), read-out: Inhibition (%)), the inhibition at 25 µM is 0.99%. In the series on 22Rv1 cells [4] (22Rv1, inhibitor alone 50 μM (NB 0), read-out: Inhibition (%)), the inhibition at 50 µM was 19.4%. Also, the inhibition at 100 µM in the series with 22Rv1 cells [4] (22Rv1, inhibitor alone 100 μM (NB 0), read-out: Inhibition (%)) amounted to 27.5%.
As to `COc1ccc2cc(NC(=O)C3=NO[C@H]4[C@H](O)C=C[C@@H](O)[C@@]4(O)C3)c(=O)oc2c1OC` [trichodermamide A], the “cytotoxic activity in HeLa cells” value in the series with HeLa cells is “inactive”.
For `COc1ccc2cc(NC(=O)C3=NO[C@H]4[C@H](O)C=C[C@@H](Cl)[C@@]4(O)C3)c(=O)oc2c1OC` [trichodermamide B], the “cytotoxic activity in HeLa cells” value in the series with HeLa cells is “high cytotoxic activity”.
With `COc1ccc2cc(N(C)C(=O)C3=NO[C@H]4[C@H](O)C=C[C@@H](O)[C@@]4(O)C3)c(=O)oc2c1OC` [trichodermamide C], the “cytotoxic activity in HeLa cells” value in the series on HeLa cells is “inactive”.
